Measured values published in US5591773A, “Inhibition of cataract formation, diseases resulting from oxidative stress, and HIV replication by caffeic acid esters” (priority 1994, dated 1997).
“Also recorded” adds a separate entry of the source.

What was measured:
bovine lens (opacity) = conditions: 1 μM TPA; cited from earlier work
[1] = system: oxidative burst of human PMNs; assay: H2O2 formation by TPA-stimulated human PMNs (phenol red/HRPO); assay type: cell-based
Method: FIG. 4. CAPE-mediated inhibition of H2 O2 formation by TPA-stimulated human PMNs. Cells were incubated with CAPE (0.05-5 nmol/ml) and TPA (25 pmol/2.5×10^5 PMNs/ml) at 37° C. for 30 min, and H2 O2 was determined by the phenol red/HRPO assay, as described in the "Experimental Details" Section, infra. Note the semilog scale. The results are presented as mean values ±SE.
A) Human PMNS Blood was obtained from healthy volunteers and collected into EDTA-containing tubes. Red cells were removed by dextran sedimentation and lysis with hypotonic ammonium chloride, as described previously (5). Cells were washed in glucose-containing basic salt solution (137 mM NaCl, 5 mM KCl, 8.5 mM Na2 HPO4 -NaH2 PO4, 0.8 mM MgSO4, 5 mM glucose, pH 7.4) and suspended at a ratio of 10 ml of the initial blood volume/ml basic salt solution. Whole WBC population was used as a source of PMNs, with PMN numbers used per assay being adjusted according to the results of Wright's staining of the peripheral blood.
PMNs (2.5×10^5 /ml) were incubated with CAPE (0.05-5.0 nmol/ml) and/or TPA (25 pmol/ml) at 37° C. for 30 min in the presence of phenol red (100 μg) and HRPO (50 μg) (54). After the reaction was stopped with catalase (50 μg/ml), the pH was adjusted to 12.5 with NaOH, the mixture was centrifuged, and the absorbance of the supernatant was determined at 598 nm. […]

HRPO = assay: Degradation of H2O2 / inhibition of HRPO; assay type: biochemical; conditions: unpublished results of Bhimani and Frenkel
[2] = system: Fischer cloned rat embryo fibroblasts; conditions: cited from earlier work
transformed cells = conditions: cited from earlier work
normal tissue = conditions: cited from earlier work

Row | SMILES | lens opacity (in words) (bovine lens (opacity)) | IC50 ([1]; 0.5 h, human PMNs 2.5×10^5/ml, TPA 25 pmol/ml, 37° C., 30 min, read-out: 50% inhibition of oxidative burst of PMNs (H2O2 production)) [nM] | inhibition of oxidative burst (in words) ([1]; CAPE 0.05-5.0 nmol/ml) | degradation of H2O2 or inhibition of HRPO (in words) (HRPO) | inhibition of adenovirus type 5 E1A-mediated transformation; cytotoxicity (in words) [2] | selective toxicity (in words) (transformed cells) | toxicity to normal tissue (in words) (normal tissue)
1 | CCCCCCCCCCCCCC(=O)O[C@@H]1[C@@H](C)[C@@]2(O)[C@@H](C=C(CO)C[C@]3(O)C(=O)C(C)=C[C@@H]23)[C@@H]2C(C)(C)[C@]12OC(C)=O [TPA, 12-O-tetradecanoylphorbol-13-acetate] | even more pronounced; also recorded: causes its opacity |  |  |  |  |  | 
2 | O=C(/C=C/c1ccc(O)c(O)c1)OCCc1ccccc1 [CAPE, Caffeic acid phenethyl ester] |  | 500 | inhibited the oxidative burst of PMNs (as measured by H2 O2 production) in a dose-dependent manner | does not degrade H2 O2 or inhibit HRPO | inhibit the transformation mediated by adenovirus type 5 E1A; also recorded: more cytotoxic to transformed Fischer cloned rat embryo fibroblasts than to wild type cells | selectively toxic to transformed cells but not to normal cells | not toxic to normal tissue
